Data from US4959370A, “Alkaloids of marine origin” (priority 1989, dated 1990).
Read-outs that look alike come from different tables or passages of the source.

How the values were obtained:
[1] = system: fourth larval stage of N. brasiliensis; assay: In vitro anthelmintic activity against fourth larval stage (L4); assay type: cell-based, Nippostrongylus brasiliensis; settings: 50 μg/ml, 37° C., seven days; for inhibition at 50 µg/mL: Nippostrongylus brasiliensis, 168 h
Procedure: To obtain the fourth larval stage (L4) of Nippostrongylus brasiliensis, rats were inoculated with 6,500 to 6,750 N. brsiliensis third stage larvae subcutaneously. Seventy-two hours later the rats were sacrificed and the fourth stage larvae harvested. Compounds of Formula (I) were tested at 50 μg/mL against the fourth larval stage of N. brasiliensis at approximately 50 L4/well. This mixture was incubated at 37° C. for a total of seven days and then read for activity. Parameters used to determine drug activity were motility, viability, and the ability of fourth stage larvae to molt to the adult, i.e., cast formation. A compound was defined as active if (1) cast formation was reduced by 40 percent or more; or (2) viability and motility together were reduced 40 percent or more. | Compound B is a compound of Formula (I) where R is methyl. *Percent cast | reduction was determined by the following: | **Percent viability reduction was determined by the | following: | ***Percent motility reduction was a subjective evaluation

[2] = molecular target: T1, purified cloned reverse transcriptase (RT) (HIV-1 M:B_HXB2R, UniProt P04585); assay: In vitro reverse transcriptase inhibitory activity; assay type: biochemical; settings: 400 μg/ml in 10 percent DMSO; 37° C., 0, 15, and 30 minutes; decrease in [3H] TTP incorporation vs controls
T1 construct: mature chain of Gag-Pol polyprotein
Procedure: The activity of purified cloned reverse transcriptase (RT), in the presence or absence of test compound, was assayed by measuring the incorporation of tritiated thymidine triphosphate ([^3 H] TTP) into a DNA chain using polyadenosine as the template and oligodeoxythymidine as the primer (Biochem. Pharm. 1987, Vol. 36, No. 24 pp. 4361-4362). The final concentration of the compounds tested for anti-RT activity was 400 μg/ml in 10 percent DMSO. Controls contained 10 percent DMSO only. After incubation at 37° C. for 0, 15, and 30 minutes, an aliquot of the incubation mixture was spotted on cellulose paper, washed in TCA-pyrophosphate solution to remove [^3 H] TTP, dried and analyzed for the rate of incorporation of radioactivity. The compounds which inhibited more than 50 percent of the enzyme activity, as determined by a decrease in radioactivity compared with controls, were considered active.

[3] = cast formation (molt to adult), read-out: PERCENT REDUCTION COMPARED TO CONTROL: Casts
[4] = subjective evaluation, read-out: PERCENT REDUCTION COMPARED TO CONTROL: Motility

With CNc1c2c(c3nc4ccccc4c4c3c1N=C4)NCCC2=O [Compound A, plakinidine A] the “PERCENT REDUCTION COMPARED TO CONTROL: Viability” value [1] was 100%, the inhibition at 50 µg/mL [1, 3] was 100% and the inhibition at 50 µg/mL [1, 4] was 100%. It also gave an inhibition at 400 µg/mL [2] of 83%.

In the case of CN(C)c1c2c(c3nc4ccccc4c4c3c1N=C4)NCCC2=O [Compound B, plakinidine B], the “PERCENT REDUCTION COMPARED TO CONTROL: Viability” value [1] is reported as 100%, the inhibition at 50 µg/mL [1, 3] is reported as 100% and the inhibition at 50 µg/mL [1, 4] is reported as 100%.
